Tested on: trypsin
Assay: Inhibition of trypsin-induced cleavage of fluorescent BODIPY FL casein (EnzChek protease assay kit)
Type: biochemical
Description: The procedure of Example 1 was independently repeated using the procyanidin-containing grape seed extract and STI, respectively, at 0.1% concentration. In addition, the procedure of Example 1 was repeated on the five individual monomer units typically found in OPC, at up to three different concentration levels.

[1] = Table 4, concentration (w/w) 0.1 %
[2] = Table 4, concentration (w/w) 1 %
[3] = Table 4, concentration (w/w) 2.5 %

Compound	% trypsin inhibition [1]	% trypsin inhibition [2]	% trypsin inhibition [3]	trypsin inhibition activity (in words) (at concentrations up to 0.1%)	% trypsin inhibition (concentration 0.001 % (w/w))	% trypsin inhibition (concentration 0.01 % (w/w))	% trypsin inhibition (concentration 0.05 % (w/w))
Oc1cc(O)c2c(c1)OC(c1ccc(O)c(O)c1)C(O)C2 (racemic) [Catechin (+/−)]	4.6%	61%	76%	–	–	–	–
Oc1cc(O)c2c(c1)OC(c1ccc(O)c(O)c1)C(O)C2 (stereo not drawn) [Catechin (+)]	11%	72%	89%	–	–	–	–
Oc1cc(O)c2c(c1)O[C@@H](c1ccc(O)c(O)c1)[C@@H](O)C2 [Epicatechin (+)]	22%	–	–	–	–	–	–
Oc1cc(O)c2c(c1)O[C@H](c1ccc(O)c(O)c1)[C@H](O)C2 [Epicatechin (−)]	–	71%	90%	–	–	–	–
O=C1O[C@H]([C@@H](O)CO)C(O)=C1O [Vit C, Vitamin C]	–	–	–	no trypsin inhibition activity	−2%	1%	−12%
Catechin (−)	18%	70%	92%	–	–	–	–

— patent US20050175719A1, “Procyanidins for treatment and prevention of enzymatic irritation to the skin” (priority 2004, published 2005)
